PubChem BioAssay AID1259407 (Chemical Carcinogenesis Research Information System (CCRIS), 2018)
Activity calls are given as the source filed them. The rule behind the calls is not given here.

System: CCRIS mutagenicity, Ames/micronucleus/aberration tests
Experiment: CCRIS mutagenicity studies

## C[C@@H]1Cc2c(Cl)cc(C(=O)NC(Cc3ccccc3)C(=O)O)c(O)c2C(=O)O1 (some centres not stated)
Test System: AMES SALMONELLA TYPHIMURIUM, Strain/Indicator: TA102, Metabolic Activation: RAT, LIVER, S-9, AROCLOR 1254, Method: STANDARD PLATE
  mutagenic call: inactive; negative
Test System: AMES SALMONELLA TYPHIMURIUM, Strain/Indicator: TA104, Metabolic Activation: NONE, Method: PREINCUBATION
  mutagenic call: inactive; negative
Test System: AMES SALMONELLA TYPHIMURIUM, Strain/Indicator: TA104, Metabolic Activation: RAT LIVER S-9, Method: PREINCUBATION
  mutagenic call: inactive; negative
Test System: AMES SALMONELLA TYPHIMURIUM, Strain/Indicator: TA1535, Metabolic Activation: HAMSTER, LIVER, S-9, AROCLOR 1254 (10 OR 30%), Method: PREINCUBATION
  mutagenic call: inactive; negative
Test System: AMES SALMONELLA TYPHIMURIUM, Strain/Indicator: TA1535, Metabolic Activation: HAMSTER, LIVER, S-9, AROCLOR 1254, Method: PREINCUBATION
  mutagenic call: inactive; negative
Test System: AMES SALMONELLA TYPHIMURIUM, Strain/Indicator: TA1535, Metabolic Activation: MOUSE KIDNEY S-9, NADP OR ARACHIDONIC ACID (10%), Method: MICROMETHOD
  mutagenic call: active; positive
Test System: AMES SALMONELLA TYPHIMURIUM, Strain/Indicator: TA1535, Metabolic Activation: MOUSE LIVER S-9 (10%), Method: MICROMETHOD
  mutagenic call: inactive; negative
Test System: AMES SALMONELLA TYPHIMURIUM, Strain/Indicator: TA1535, Metabolic Activation: NONE, Method: STANDARD PLATE
  mutagenic call: inactive; negative
Test System: AMES SALMONELLA TYPHIMURIUM, Strain/Indicator: TA1535, Metabolic Activation: RAT LIVER S-9, AROCLOR 1254 (10%), Method: MICROMETHOD
  mutagenic call: inactive; negative
Test System: AMES SALMONELLA TYPHIMURIUM, Strain/Indicator: TA1535, Metabolic Activation: RAT LIVER S-9, Method: PREINCUBATION
  mutagenic call: inactive; negative
Test System: AMES SALMONELLA TYPHIMURIUM, Strain/Indicator: TA1535, Metabolic Activation: RAT, LIVER, S-9, AROCLOR 1254 (10 OR 30%), Method: PREINCUBATION
  mutagenic call: inactive; negative
Test System: AMES SALMONELLA TYPHIMURIUM, Strain/Indicator: TA1535, Metabolic Activation: RAT, LIVER, S-9, AROCLOR 1254, Method: PREINCUBATION
  mutagenic call: inactive; negative
Test System: AMES SALMONELLA TYPHIMURIUM, Strain/Indicator: TA1535, Metabolic Activation: RAT, LIVER, S-9, AROCLOR 1254, Method: STANDARD PLATE
  mutagenic call: inactive; negative
Test System: AMES SALMONELLA TYPHIMURIUM, Strain/Indicator: TA1537, Metabolic Activation: NONE, Method: PREINCUBATION
  mutagenic call: inactive; negative
Test System: AMES SALMONELLA TYPHIMURIUM, Strain/Indicator: TA1537, Metabolic Activation: NONE, Method: STANDARD PLATE
  mutagenic call: inactive; negative
Test System: AMES SALMONELLA TYPHIMURIUM, Strain/Indicator: TA1537, Metabolic Activation: RAT LIVER S-9, Method: PREINCUBATION
  mutagenic call: inactive; negative
Test System: AMES SALMONELLA TYPHIMURIUM, Strain/Indicator: TA1537, Metabolic Activation: RAT, LIVER, S-9, AROCLOR 1254, Method: STANDARD PLATE
  mutagenic call: inactive; negative
Test System: AMES SALMONELLA TYPHIMURIUM, Strain/Indicator: TA1538, Metabolic Activation: MOUSE KIDNEY S-9, NADP OR ARACHIDONIC ACID (10%), Method: MICROMETHOD
  mutagenic call: active; positive
Test System: AMES SALMONELLA TYPHIMURIUM, Strain/Indicator: TA1538, Metabolic Activation: MOUSE LIVER S-9 (10%), Method: MICROMETHOD
  mutagenic call: inactive; negative
Test System: AMES SALMONELLA TYPHIMURIUM, Strain/Indicator: TA1538, Metabolic Activation: NONE, Method: PREINCUBATION
  mutagenic call: inactive; negative
Test System: AMES SALMONELLA TYPHIMURIUM, Strain/Indicator: TA1538, Metabolic Activation: NONE, Method: STANDARD PLATE
  mutagenic call: inactive; negative
Test System: AMES SALMONELLA TYPHIMURIUM, Strain/Indicator: TA1538, Metabolic Activation: RAT LIVER S-9, AROCLOR 1254 (10%), Method: MICROMETHOD
  mutagenic call: inactive; negative
Test System: AMES SALMONELLA TYPHIMURIUM, Strain/Indicator: TA1538, Metabolic Activation: RAT LIVER S-9, Method: PREINCUBATION
  mutagenic call: inactive; negative
Test System: AMES SALMONELLA TYPHIMURIUM, Strain/Indicator: TA1538, Metabolic Activation: RAT, LIVER, S-9, AROCLOR 1254, Method: STANDARD PLATE
  mutagenic call: inactive; negative
Test System: CHINESE HAMSTER V-79, Strain/Indicator: V-79(HPRT)/6-THIOGUANINE, Metabolic Activation: NONE
  mutagenic call: inactive; negative
Test System: CHINESE HAMSTER V-79, Strain/Indicator: V-79(HPRT)/6-THIOGUANINE, Metabolic Activation: RAT LIVER S-9
  mutagenic call: inactive; negative
Test System: Chinese hamster lung cells, Strain/Indicator: V79 (HPRT)/6-Thioguanine, Metabolic Activation: None, Method: Standard plate
  mutagenic call: active; positive (weak)
Test System: Chinese hamster lung cells, Strain/Indicator: V79 (HPRT)/6-Thioguanine, Metabolic Activation: Rat, Kidney, S-9 (phenobarbital/beta-naphthoflavone), Method: Standard plate
  mutagenic call: active; positive (weak)
Test System: MOUSE LYMPHOMA, Strain/Indicator: L5178Y (TK+/TK-), Metabolic Activation: NONE, Method: SUSPENSION/PLATE
  mutagenic call: inactive; negative
Test System: MOUSE LYMPHOMA, Strain/Indicator: L5178Y (TK+/TK-), Metabolic Activation: RAT, LIVER, S-9, AROCLOR 1254, Method: SUSPENSION/PLATE
  mutagenic call: inactive; negative
Test System: Mouse lymphoma cells, Strain/Indicator: L5178Y (tk+/tk-), Metabolic Activation: None, Method: Microtiter
  mutagenic call: active; positive (weak)
Test System: Mouse lymphoma cells, Strain/Indicator: L5178Y (tk+/tk-), Metabolic Activation: Rat, Kidney, S-9 (phenobarbital/beta-naphthoflavone), Method: Microtiter
  mutagenic call: active; positive (weak)
Test System: UDS HUMAN INFANT UROTHELIAL CELLS, Strain/Indicator: THY INCORP, Metabolic Activation: NONE, Method: AUTORADIOGRAPHY
  mutagenic call: inactive; negative
Test System: UDS HUMAN UROTHELIAL CELLS, Strain/Indicator: THY INCORP, Metabolic Activation: NONE, Method: AUTORADIOGRAPHY
  mutagenic call: active; positive
Test System: UDS HUMAN UROTHELIAL CELLS, Strain/Indicator: THYMIDINE INCORPORATION, Metabolic Activation: NONE, Method: AUTORADIOGRAPHY
  mutagenic call: active; positive
Test System: UDS PORCINE PRIMARY BLADDER EPITHELIAL CELL, Strain/Indicator: THY INCORP, Metabolic Activation: NONE, Method: AUTORADIOGRAPHY
  mutagenic call: active; positive
Test System: UDS RODENT PRIMARY CELLS, Metabolic Activation: NONE, Method: AUTORADIOGRAPHY (DNA REPAIR)
  mutagenic call: inactive; negative
